This is an account of results in patent US20100279329A1, “METHOD FOR THE STABILISATION OF PURIFIED P-GLYCOPROTEIN” (UNIVERSITY OF BRIGHTON, priority 2007, published 2010).

Entries after “also recorded” stand apart in the source; their conditions may differ.

Data set [1] concerns the target T1, P-glycoprotein (P-gp) (Homo sapiens, UniProt P08183). The data set can be described thus: ATPase activity, varying ATP concentration (Michaelis-Menten kinetics), colorimetric Pi release. The format is biochemical. The arrangement: made in house; host or cells: Trichoplusia ni (High Five) insect cells, recombinant baculovirus. To be noted: for Nicardipine stimulated Vmax / Effect of the disaccharide on nicardipine stimulated ATPase activity (Vmax): 30 μM nicardipine; for Nicardipine stimulated Vmax / Basal Vmax: glycerol purified P-gp, mean (SEM), n=4; for Basal Vmax / Effect of the disaccharide on basal ATPase activity: no drug; for Effect of the disaccharide on nicardipine stimulated ATPase activity (Vmax) / Effect of the disaccharide on basal ATPase activity: 10-300 mM disaccharide added to glycerol purified P-gp, two way ANOVA. As to the method:
A colorimetric assay (Chifflet et al., 1988) was used to determine ATP hydrolysis via release of inorganic phosphate. P-gp activity was expressed as μmol Pi/min/mg protein.
A 0-20 nmol standard curve was set up using KH2PO4 as a source of Pi. Background Pi was measured using wells containing no protein or drug only ATP and ATPase buffer (50 mM Tris pH 7.4, 150 mM NH4Cl, 5 mM MgSO4, 0.02% (w/v) NaN3).
The plate was incubated for 20 minutes at 37° C. and the reaction quenched by rapid addition of 40 μl 12% (w/v) SDS to all wells. 100 μl of a 1:1 mixture of 6% (w/v) ascorbate in 1M HCl:1% (w/v) ammonium molybdate (prepared after the reaction had been quenched due to its sensitivity to light) was added to all wells and the plate was incubated for 5 minutes at room temperature. Finally, 100 μl 2% (w/v) sodium citrate/sodium metaarsentie/2% (v/v) acetic acid was added and the plate incubated at 37° C. for 15 minutes. The plate was then allowed to cool and the absorbance measured at a wavelength of 750 nm in a plate reader (SpectraMax 250, Molecular Devices/Multiskan Ascent). The amount of Pi released was calculated from the Pi standard curve and the ATPase activity of P-gp calculated.
The amount of protein (mg) in 20 μl was calculated from the protein concentration determined by BSA standard curve (see 1.2.8) allowing ATPase activity to be determined as μmol/min/mg protein. The Michaelis-Menten equation (Equation 1) was fitted to a graph of ATPase activity using non-linear least squares fit (GraphPad Prism 4.0).
Both varying ATP and varying drug assays were performed.

For data set [2], the target named is T2, plasma membrane H+-ATPase (Kluyveromyces lactis, UniProt P49380).
T2 sequence (P49380 1-899): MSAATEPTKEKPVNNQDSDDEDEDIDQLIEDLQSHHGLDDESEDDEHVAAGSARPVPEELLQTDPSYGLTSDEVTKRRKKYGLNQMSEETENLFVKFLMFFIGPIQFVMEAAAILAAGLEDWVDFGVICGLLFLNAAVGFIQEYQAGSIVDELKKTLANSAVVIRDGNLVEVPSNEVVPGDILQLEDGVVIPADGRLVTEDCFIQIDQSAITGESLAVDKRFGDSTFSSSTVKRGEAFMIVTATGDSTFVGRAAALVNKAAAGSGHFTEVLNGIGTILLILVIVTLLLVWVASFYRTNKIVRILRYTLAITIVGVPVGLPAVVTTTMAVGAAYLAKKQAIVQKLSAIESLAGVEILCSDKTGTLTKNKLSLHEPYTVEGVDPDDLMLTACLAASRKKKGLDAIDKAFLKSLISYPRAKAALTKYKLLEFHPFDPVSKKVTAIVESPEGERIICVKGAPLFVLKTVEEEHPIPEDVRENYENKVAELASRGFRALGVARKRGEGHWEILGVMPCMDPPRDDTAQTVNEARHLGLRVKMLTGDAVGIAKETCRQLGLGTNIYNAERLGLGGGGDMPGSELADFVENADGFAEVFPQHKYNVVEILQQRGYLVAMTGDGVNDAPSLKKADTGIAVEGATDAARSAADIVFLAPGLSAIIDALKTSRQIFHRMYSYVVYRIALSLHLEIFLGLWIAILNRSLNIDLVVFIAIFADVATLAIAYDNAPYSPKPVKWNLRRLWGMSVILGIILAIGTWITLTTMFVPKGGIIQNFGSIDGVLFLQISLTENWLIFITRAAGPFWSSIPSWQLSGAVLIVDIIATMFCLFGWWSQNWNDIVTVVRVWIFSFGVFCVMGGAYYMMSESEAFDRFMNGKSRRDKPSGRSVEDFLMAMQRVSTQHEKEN
The following applies: cited from earlier work.

The target of data set [3] is T1, P-glycoprotein (P-gp). The data set can be described thus: ATPase activity, varying drug concentration at constant ATP concentration (dose response). To be noted: 300 mM disaccharide vs none; glycerol purified P-gp; two way ANOVA. The text has this: The assay was set up, conducted and read in conditions identical to those described above. […] The equation for the general dose response curve is given below (Equation 2).
Equation 2: The general dose response curve equation, where • V=rate of hydrolysis expressed as μmol/min/mg Pi, • Vmax=maximum rate of hydrolysis, • Vmin=minimum rate of hydrolysis, • [D]=concentration of drug, and • EC50=concentration of drug required to produce half maximum rate of hydrolysis.
The highest concentration was similar to that found in the reaction volume of an ATPase assay when a 20% (w/v) buffer was used (10 mM-300 mM). […] Both varying ATP and varying drug assays were performed.

Data set [4] deals with T1, P-glycoprotein (P-gp). Nature of the data set: ATPase activity of P-gp proteoliposomes after freeze drying, rehydration and storage. The format is biochemical. The arrangement: made in house; host or cells: Trichoplusia ni (High Five) insect cells, recombinant baculovirus. To be noted: storage at 4° C. only. As to the method:
All freeze drying was carried out using a CHRIST Alpha 2-4 (MartinChrist, Germany) with the condenser temperature set to −80° C. Initial experiments were performed with product in micro-centrifuge tubes. Later experiments were performed using 2 ml glass freeze drying vials and freeze drying injection stoppers in conjunction with a stoppering system. This permitted vials to be sealed under vacuum, thus avoiding moisture uptake from the atmosphere when the chamber pressure was raised to atmospheric. In all experiments the shelf was pre-cooled to −80° C. to avoid melting of products whilst the chamber was being evacuated to the required pressure.
In order for freeze drying to be considered successful P-gp must have at least retained ATPase activity on rehydration immediately after freeze drying. On completion of the freeze drying cycle the solid product cake was rehydrated with distilled water. The product vial was vortexed to ensure the dried product was completely dissolved and rehydrated. […]
P-gp proteoliposomes were freeze dried, sealed and stored at a range of temperatures (4° C., 20° C. and 37° C.) and ATPase activity was assessed at intervals up to 150 days. […]
Following rehydration of P-gp proteoliposomes the ATPase activity was measured as described earlier. Activity was assessed following storage at 4° C., 20° C. and 37° C. at intervals up to 30 days.

T1 sequence (P08183 whole entry): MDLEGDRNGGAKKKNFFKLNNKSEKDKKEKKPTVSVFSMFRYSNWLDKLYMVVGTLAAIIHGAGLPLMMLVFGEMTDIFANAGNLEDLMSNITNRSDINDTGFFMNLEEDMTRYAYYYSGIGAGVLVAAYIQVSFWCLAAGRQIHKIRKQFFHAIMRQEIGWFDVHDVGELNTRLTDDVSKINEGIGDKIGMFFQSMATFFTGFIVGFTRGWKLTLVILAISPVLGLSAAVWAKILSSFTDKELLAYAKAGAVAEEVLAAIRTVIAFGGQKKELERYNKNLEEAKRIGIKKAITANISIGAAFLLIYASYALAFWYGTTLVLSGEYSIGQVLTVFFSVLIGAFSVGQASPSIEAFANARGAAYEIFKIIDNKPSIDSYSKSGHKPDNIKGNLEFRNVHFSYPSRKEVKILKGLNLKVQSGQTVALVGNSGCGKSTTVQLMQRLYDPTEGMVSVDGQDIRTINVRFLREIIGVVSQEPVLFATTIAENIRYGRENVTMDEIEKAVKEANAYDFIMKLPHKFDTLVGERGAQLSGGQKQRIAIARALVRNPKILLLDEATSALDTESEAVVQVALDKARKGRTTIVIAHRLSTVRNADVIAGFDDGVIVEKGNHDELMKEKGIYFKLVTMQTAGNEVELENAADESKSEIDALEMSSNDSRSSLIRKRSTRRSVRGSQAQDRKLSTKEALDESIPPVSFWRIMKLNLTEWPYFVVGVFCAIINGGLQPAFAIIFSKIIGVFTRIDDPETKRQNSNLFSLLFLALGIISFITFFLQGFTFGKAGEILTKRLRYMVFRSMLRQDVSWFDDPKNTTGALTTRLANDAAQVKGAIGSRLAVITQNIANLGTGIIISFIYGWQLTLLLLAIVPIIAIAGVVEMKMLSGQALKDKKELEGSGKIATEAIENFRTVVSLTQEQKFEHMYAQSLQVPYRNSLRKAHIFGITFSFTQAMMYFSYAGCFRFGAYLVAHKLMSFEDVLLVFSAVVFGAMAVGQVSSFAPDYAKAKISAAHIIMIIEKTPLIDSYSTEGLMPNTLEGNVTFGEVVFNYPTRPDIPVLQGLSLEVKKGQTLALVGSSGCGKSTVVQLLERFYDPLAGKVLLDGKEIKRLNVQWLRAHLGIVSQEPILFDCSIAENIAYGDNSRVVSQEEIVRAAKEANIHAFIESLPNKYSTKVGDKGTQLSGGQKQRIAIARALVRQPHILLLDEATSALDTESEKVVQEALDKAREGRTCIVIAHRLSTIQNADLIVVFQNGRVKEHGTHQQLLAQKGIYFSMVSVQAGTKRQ

Consider `OC[C@H]1O[C@H](O[C@H]2O[C@H](CO)[C@@H](O)[C@H](O)[C@H]2O)[C@H](O)[C@@H](O)[C@@H]1O` [Trehalose, α-D-glucopyranosyl (1-1) α-D-glucopyranose], for which the “Nicardipine stimulated Vmax” value in data set [1] (10 mM trehalose) is 4.7 (1.6) μmol/min/mg; in data set [1] (30 mM trehalose), 5.6 (2.3) μmol/min/mg; in data set [1] (100 mM trehalose) it was 4.9 (2.1) μmol/min/mg; in data set [1] (300 mM trehalose) it was 3.7 (1.3) μmol/min/mg. In addition, the “Basal Vmax” value in data set [1] (10 mM trehalose) was 0.86 (0.67) μmol/min/mg; in data set [1] (30 mM trehalose) it was 0.63 (0.4) μmol/min/mg; in data set [1] (100 mM trehalose), 1.0 (0.86) μmol/min/mg; in data set [1] (300 mM trehalose), 0.7 (0.54) μmol/min/mg. Also, the “Effect of the disaccharide on nicardipine stimulated ATPase activity (Vmax)” value in data set [1] is “did not affect; also recorded: does not affect; also recorded: no significant difference”. For the same compound, in data set [1], the “Effect of the disaccharide on basal ATPase activity” value is given as “does not affect; also recorded: no significant difference”. Further, in data set [2] (0.6 M to 0.8M trehalose, 20° C.), the “Effect on ATPase activity of plasma membrane H+-ATPase” value is “inhibit”. The “Reduction in Vmax of plasma membrane H+-ATPase” value in data set [2] (high trehalose concentrations, 40° C.) is “negligible”. The “Effect of the disaccharide on potency of nicardipine to stimulate ATPase activity” value in data set [3] is given as “did not affect; also recorded: unaffected; also recorded: no significant difference”.
Consider `OC[C@H]1O[C@H](O[C@H]2[C@H](O)[C@@H](O)[C@@H](O)O[C@@H]2CO)[C@H](O)[C@@H](O)[C@@H]1O` [Maltose, α-D-glucopyranosyl (1-4) α-D-glucopyranose], for which the “Nicardipine stimulated Vmax” value in data set [1] (10 mM maltose) is 1.7 (1.1) μmol/min/mg; in data set [1] (30 mM maltose), 1.1 (0.6) μmol/min/mg; in data set [1] (100 mM maltose), 1.0 (0.3) μmol/min/mg; in data set [1] (300 mM maltose), 0.9 (0.4) μmol/min/mg. Also, the “Basal Vmax” value in data set [1] (10 mM maltose) was 0.1 (0.4) μmol/min/mg; in data set [1] (30 mM maltose), 0.1 (0.1) μmol/min/mg; in data set [1] (100 mM maltose), 0.1 (0.6) μmol/min/mg; in data set [1] (300 mM maltose), 0.1 (0.2) μmol/min/mg. Also, the “Effect of the disaccharide on nicardipine stimulated ATPase activity (Vmax)” value in data set [1] is reported as “no significant affect; also recorded: did not alter; also recorded: does not effect; also recorded: no significant difference”. Besides, the “Effect of the disaccharide on basal ATPase activity” value in data set [1] is recorded as “remained unchanged; also recorded: no significant difference”. Moreover, the “Time for which P-gp ATPase activity is preserved after freeze drying” value in data set [4] is at most 12 days.
